# Entries after “also recorded” stand apart in the source; their conditions may differ. Where two headings read alike, the source gives them in different places.
# Legend:
# pancreas [1] = conditions: intra-arterial injection, recent-onset diabetic mice, dose range 0.01-250 nmol/kg; cited from earlier work
# pancreas [2] = test: large animal study of pancreatic sP injection via the celiac artery; assay type: in vivo, dog
# Experimental: A large animal study in dogs has recently been completed, seeking evidence for sP-induced pancreas toxicity following pancreatic injection of sP via the celiac artery. […] The injections were conducted by the Sick Kids' clinical imaging team. Since this VanilloidGenetics-sponsored study is unlikely to be published by itself, excerpt imaging data are provided in the Protocol Addendum, showing the pancreas-selective, rapidly transient (˜7 min) sP effect as measured with a co-injected, inert blue dye marker. The short-lived, physiological sP responses (hyperemia→pancreas→selective hyperperfusion and extravasation→normal pancreas appearance) illustrate the core effects expected to be duplicated in T1D patients.
# A large animal study of pancreatic sP injection in dogs, using modern pancreatitis diagnostics is currently being conducted (Mansfield et al., J. Vet. Diagn. Invest. 23, 691-697 (2011)) and histopathology for the detection of possible pancreatitis lesions. Data are expected to be complete within about two weeks of this writing, in time for the anticipated Pre-CTA meeting. Dogs are a rational choice of large animal experimental model, since Dogs spontaneously develop pancreatitis, have successfully been used in studies of experimental pancreatitis and well tested diagnostics are available (Trivedi et al., J. Vet. Intern. Med. 25, 1241-1247 (2011)).
# [3] = earlier and current trials, literature and trials registry, cited from earlier work
# [4] = cited from earlier work; for tissue half-life: in vivo
# pancreas [5] = test: pancreas pathology / toxicity after intra-arterial sP injection in rodents; assay type: in vivo, mouse
# Description: Both islets are surrounded by normal exocrine pancreas tissue without any lesions typical for pancreatitis.
# For disease induction, the standard experimental pancreatitis model employs multiple high dose injections of the toxic secretagogue caerulein (Koh et al., J. Cell. Mol. Med. 15, 2139-2149 (2011)).
smiles,measurement,setting,value
"CSCC[C@H](NC(=O)[C@H](CC(C)C)NC(=O)CNC(=O)[C@H](Cc1ccccc1)NC(=O)[C@H](Cc1ccccc1)NC(=O)[C@H](CCC(N)=O)NC(=O)[C@H](CCC(N)=O)NC(=O)[C@@H]1CCCN1C(=O)[C@H](CCCCN)NC(=O)[C@@H]1CCCN1C(=O)[C@@H](N)CCCN=C(N)N)C(N)=O [sP, substance P]",pancreas pathology consistent with pancreatitis,pancreas [1],has not been observed
same,tolerability in canine studies,"pancreas [2]; 10, 50, 100 or 250 nmol/kg BW",well tolerated
same,sP-induced pancreas toxicity in dogs,"pancreas [2]; celiac artery injection, study-relevant dose range, blood tests (>1200 assays) and histopathology",not pancreas toxic; also recorded: No drug-induced toxicity was found
same,adverse events of sP celiac injections,pancreas [2]; entire canine study,without adverse events
same,toxicity / adverse events in human clinical sP trials,[3],without sP-attributable adverse events
same,toxicity / adverse events in human clinical sP trials,[3]; listed as substance P,lack of toxicity
same,vascular half-life time,[4]; as low as,< 30 s
same,vascular half-life time,[4]; in some locales,up to a minute
same,tissue half-life,[4],< 60 s
same,tissue half-life,[4]; listed as substance P,a minute or less
same,time to inactivation in tissue,[4]; proteolytic degradation and binding to NK1R in tissue,within seconds
same,tolerability in rodent studies,"pancreas [5]; 10, 50, 100 or 250 nmol/kg BW",well tolerated
same,tissue damage or pancreatitis-like disease,pancreas [5]; sP injection without caerulein,does not cause tissue damage or pancreatitis-like disease
same,sP pancreas toxicity in rodents,pancreas [5]; without caerulein pretreatment,has not been observed

# Reference: patent US9192647B2, “Method for reversing recent-onset type 1 diabetes (T1D) by administering substance P (sP)” (priority 2013, dated 2015)
